{"source": "patent US20100324101A1", "about": "“Use of Succinate Dehydrogenase Inhibitors for Increasing the Resistance of Plants or Parts of Plants to Abiotic Stress” (Bayer CropScience AG, priority 2009, published 2010)", "format_in_all_cases": "in vivo", "key": {"[1]": {"tested_on": "barley - Hordeum vulgare", "assay": "Greenhouse drought stress test on barley after spray treatment", "details": "HORVS (barley), drought stress 26° C./18° C. (day/night) one week, 7 days recovery; 100 g of a.s./ha, spray 600 l/ha; damage vs untreated stressed plants", "experimental": "(§1) Oilseed rape, maize and barley are cultivated on sandy clay under greenhouse conditions. After 2-3 weeks, after BBCH10 to BBCH13 has been reached, the plants are each treated with bixafen at application rates of from 250 g/ha and 100 g/h. The spray volume is adjusted to 600 l/ha. The plants are then exposed to drought stress by heating the test chamber to 26° C./18° C. (day/night) or cold temperature stress brought about by cooling the test chamber to 8° C./1° C. (day/night). After one week, the test chamber is readjusted to normal temperatures and the test plants are then allowed to recover for 7 days. Evaluation of the compounds tested is carried out by comparison of the treated plants with the untreated plants, each of which was exposed to the stress factors, using the formula below: [formula] EFF: efficiency (%) SWug: damage to untreated control plants SWbg: damage to treated plants"}, "[2]": {"tested_on": "oilseed rape - Brassica napus", "assay": "Greenhouse drought stress test on oilseed rape after spray treatment", "details": "BRSNS (oilseed rape), drought stress 26° C./18° C. (day/night) one week, 7 days recovery; 250 g of a.s./ha, spray 600 l/ha; damage vs untreated stressed plants", "experimental": "as §1"}, "[3]": {"tested_on": "maize - Zea mays", "assay": "Greenhouse cold temperature stress test on maize after spray treatment", "details": "cold temperature stress 8° C./1° C. (day/night) one week, 7 days recovery, spray 600 l/ha, damage vs untreated stressed plants", "experimental": "as §1"}}, "data": [{"smiles": "Cn1cc(C(=O)Nc2ccc(F)cc2-c2ccc(Cl)c(Cl)c2)c(C(F)F)n1", "note": "[bixafen, N-(3′,4′-dichloro-5-fluoro-1,1′-biphenyl-2-yl)-3-(difluoromethyl)-1-methyl-1H-pyrazole-4-carboxamide]", "values": [{"measurement": "Efficiency", "setting": "[1]", "value": 22, "unit": "%"}, {"measurement": "Efficiency", "setting": "[2]", "value": 15, "unit": "%"}, {"measurement": "Efficiency", "setting": "[3]; 100 g of a.s./ha", "value": 21, "unit": "%"}, {"measurement": "Efficiency", "setting": "[3]; 250 g of a.s./ha", "value": 47, "unit": "%"}]}]}
